The EC50 is the concentration giving half of the maximal effect.

The structures appear in SMILES notation.

For 15 compounds, EC50 results are on record in US11078216B2, “Bisaryl amides as NRF2 activators” (GLAXOSMITHKLINE INTELLECTUAL PROPERTY DEVELOPMENT LIMITED, priority 2016, dated 2021).

The assay relates to NRF2 (NQO1 activity as marker for NRF2 activation), BEAS-2B cells. As to the kind of experiment: BEAS-2B NQO1 MTT Assay. The format is cell-based. To be noted: Homo sapiens, EC50 of NQO1 specific activity induction, 48 hours incubation, read-out: EC50. From the text:
NAD(P)H:quinone oxidoreductase 1 (NQO1), also called DT diaphorase, is a homodimeric FAD-containing enzyme that catalyzes obligatory NAD(P)H-dependent two-electron reductions of quinones and protects cells against the toxic and neoplastic effects of free radicals and reactive oxygen species arising from one-electron reductions. The transcription of NQO1 is finely regulated by NRF2, and thus NQO1 activity is a good marker for NRF2 activation. On day one, frozen BEAS-2B cells (ATCC) are thawed in a water bath, counted, and re-suspended at a concentration of 250,000 cells/mL. Fifty microliters of cells are plated in 384 well black clear-bottomed plates. Plates are incubated at 37° C., 5% CO2 overnight. On day two, plates are centrifuged and 50 nL of compound or controls are added to the cells. Plates are then incubated at 37° C., 5% CO2 for 48 hours. On day four, medium is aspirated from the plate and crude cell lysates are made by adding 13 uL of 1× Cell Signaling Technologies lysis buffer with 1 Complete, Mini, EDTA-free Protease Inhibitor Tablet (Roche) for each 10 mL of lysis buffer. After lysis plates are incubated for 20 minutes at room temperature. Two microliters of lysate are removed for use in Cell Titer Glo assay (Promega) and MTT cocktail is prepared (Prochaska et. al. 1998) for measurement of NQO1 activity. Fifty microliters of MTT cocktail is added to each well, plate is centrifuged, and analyzed on an Envision plate reader (Perkin Elmer) using Absorbance 570 nm label for 30 minutes. Product formation is measured kinetically and the EC50 of NQO1 specific activity induction is calculated by plotting the change in absorbance (Delta OD/min) versus the log of compound concentration followed by 3-parameter fitting.
EC50s<1 nM (+++++), EC50s 1 nM-10 nM (++++), EC50s 10 nM-100 nM (+++), EC50s 100 nM-1 uM (++), EC50s 1-10 uM (+), EC50s>10 uM (−), or were not determined (ND).

On to `CC[C@@H]1CN(Cc2cc([C@H](CC(=O)NCC3CCOC3)c3ccc4c(nnn4CC)c3C)ccc2C)S(=O)(=O)c2cccnc2O1` (stereo partly drawn) [Example 26, (3S)-3-(3-(((R)-4-Ethyl-1,1-dioxido-3,4-dihydro-2H-pyrido[2,3-b][1,4,5]oxathiazepin-2-yl)methyl)-4-methylphenyl)-3-(1-ethyl-4-methyl-1H-benzo[d][1,2,3]triazol-5-yl)-N-((tetrahydrofuran-3-yl)methyl)propanamide], for which the EC50 was in the range of 100 to 1000 nM.
To `CC[C@@H]1CN(Cc2cc([C@H](CC(=O)NCC(C)(C)O)c3ccc4c(nnn4CC)c3C)ccc2C)S(=O)(=O)c2cccnc2O1` [Example 27, (S)-3-(3-(((R)-4-Ethyl-1,1-dioxido-3,4-dihydro-2H-pyrido[2,3-b][1,4,5]oxathiazepin-2-yl)methyl)-4-methylphenyl)-3-(1-ethyl-4-methyl-1H-benzo[d][1,2,3]triazol-5-yl)-N-(2-hydroxy-2-methylpropyl)propanamide] belongs 1000 to 10000 nM; to `CC[C@@H]1CN(Cc2cc([C@H](CC(=O)NC(C)C(=O)NC)c3ccc4c(nnn4CC)c3C)ccc2C)S(=O)(=O)c2cccnc2O1` (stereo partly drawn) [Example 28, (3S)-3-(3-(((R)-4-Ethyl-1,1-dioxido-3,4-dihydro-2H-pyrido[2,3-b][1,4,5]oxathiazepin-2-yl)methyl)-4-methylphenyl)-3-(1-ethyl-4-methyl-1H-benzo[d][1,2,3]triazol-5-yl)-N-(1-(methylamino)-1-oxopropan-2-yl)propanamide], 1000 to 10000 nM; to `CC[C@@H]1CN(Cc2cc([C@H](CC(=O)NC3CCCNC3=O)c3ccc4c(nnn4CC)c3C)ccc2C)S(=O)(=O)c2cccnc2O1` (stereo partly drawn) [Example 29, (3S)-3-(3-(((R)-4-Ethyl-1,1-dioxido-3,4-dihydro-2H-pyrido[2,3-b][1,4,5]oxathiazepin-2-yl)methyl)-4-methylphenyl)-3-(1-ethyl-4-methyl-1H-benzo[d][1,2,3]triazol-5-yl)-N-(2-oxopiperidin-3-yl)propanamide], 1000 to 10000 nM.
Take `CC[C@@H]1CN(Cc2cc([C@H](CC(=O)NCCS(N)(=O)=O)c3ccc4c(nnn4CC)c3C)ccc2C)S(=O)(=O)c2cccnc2O1` [Example 30, (S)-3-(3-(((R)-4-Ethyl-1,1-dioxido-3,4-dihydro-2H-pyrido[2,3-b][1,4,5]oxathiazepin-2-yl)methyl)-4-methylphenyl)-3-(1-ethyl-4-methyl-1H-benzo[d][1,2,3]triazol-5-yl)-N-(2-sulfamoylethyl)propanamide]: the EC50 lay within 100 to 1000 nM.
`CC[C@@H]1CN(Cc2cc([C@H](CC(=O)NC3CC3)c3ccc4c(nnn4CC)c3C)ccc2C)S(=O)(=O)c2cccnc2O1` [Example 31, (S)—N-Cyclopropyl-3-(3-(((R)-4-ethyl-1,1-dioxido-3,4-dihydro-2H-pyrido[2,3-b][1,4,5]oxathiazepin-2-yl)methyl)-4-methylphenyl)-3-(1-ethyl-4-methyl-1H-benzo[d][1,2,3]triazol-5-yl)propanamide]: the EC50 lay within 100 to 1000 nM.
To `CC[C@@H]1CN(Cc2cc([C@H](CC(=O)NCCO)c3ccc4c(nnn4CC)c3C)ccc2C)S(=O)(=O)c2cccnc2O1` [Example 32, (S)-3-(3-(((R)-4-Ethyl-1,1-dioxido-3,4-dihydro-2H-pyrido[2,3-b][1,4,5]oxathiazepin-2-yl)methyl)-4-methylphenyl)-3-(1-ethyl-4-methyl-1H-benzo[d][1,2,3]triazol-5-yl)-N-(2-hydroxyethyl)propanamide] belongs 1000 to 10000 nM; to `CC[C@@H]1CN(Cc2cc([C@H](CC(=O)NCCCO)c3ccc4c(nnn4CC)c3C)ccc2C)S(=O)(=O)c2cccnc2O1` [Example 33, (S)-3-(3-(((R)-4-Ethyl-1,1-dioxido-3,4-dihydro-2H-pyrido[2,3-b][1,4,5]oxathiazepin-2-yl)methyl)-4-methylphenyl)-3-(1-ethyl-4-methyl-1H-benzo[d][1,2,3]triazol-5-yl)-N-(3-hydroxypropyl)-propanamide], 1000 to 10000 nM.
Consider `CC[C@@H]1CN(Cc2cc([C@H](CC(=O)NCCCOC)c3ccc4c(nnn4CC)c3C)ccc2C)S(=O)(=O)c2cccnc2O1` [Example 34, (S)-3-(3-(((R)-4-Ethyl-1,1-dioxido-3,4-dihydro-2H-pyrido[2,3-b][1,4,5]oxathiazepin-2-yl)methyl)-4-methylphenyl)-3-(1-ethyl-4-methyl-1H-benzo[d][1,2,3]triazol-5-yl)-N-(3-methoxypropyl)-propanamide], for which the EC50 was 1000 to 10000 nM.
The value for `CC[C@@H]1CN(Cc2cc([C@H](CC(=O)NCC(N)=O)c3ccc4c(nnn4CC)c3C)ccc2C)S(=O)(=O)c2cccnc2O1` [Example 35, (S)—N-(2-Amino-2-oxoethyl)-3-(3-(((R)-4-ethyl-1,1-dioxido-3,4-dihydro-2H-pyrido[2,3-b][1,4,5]oxathiazepin-2-yl)methyl)-4-methylphenyl)-3-(1-ethyl-4-methyl-1H-benzo[d][1,2,3]triazol-5-yl)propanamide] was 1000 to 10000 nM.
In the case of `CC[C@@H]1CN(Cc2cc([C@H](CC(=O)NCCNC)c3ccc4c(nnn4CC)c3C)ccc2C)S(=O)(=O)c2cccnc2O1` [Example 36, (S)-3-(3-(((R)-4-Ethyl-1,1-dioxido-3,4-dihydro-2H-pyrido[2,3-b][1,4,5]oxathiazepin-2-yl)methyl)-4-methylphenyl)-3-(1-ethyl-4-methyl-1H-benzo[d]-[1,2,3]triazol-5-yl)-N-(2-(methylamino)ethyl)propanamide], the EC50 fell in the range of 100 to 1000 nM.
The value for `CC[C@@H]1CN(Cc2cc([C@H](CC(=O)NCC3CCCO3)c3ccc4c(nnn4CC)c3C)ccc2C)S(=O)(=O)c2cccnc2O1` (stereo partly drawn) [Example 37, (3S)-3-(3-(((R)-4-Ethyl-1,1-dioxido-3,4-dihydro-2H-pyrido[2,3-b][1,4,5]oxathiazepin-2-yl)methyl)-4-methylphenyl)-3-(1-ethyl-4-methyl-1H-benzo[d][1,2,3]triazol-5-yl)-N-((tetrahydrofuran-2-yl)methyl)propanamide] was 100 to 1000 nM; that for `CC[C@@H]1CN(Cc2cc([C@H](CC(=O)NCCF)c3ccc4c(nnn4CC)c3C)ccc2C)S(=O)(=O)c2cccnc2O1` [Example 38, (S)-3-(3-(((R)-4-Ethyl-1,1-dioxido-3,4-dihydro-2H-pyrido[2,3-b][1,4,5]oxathiazepin-2-yl)methyl)-4-methylphenyl)-3-(1-ethyl-4-methyl-1H-benzo[d][1,2,3]triazol-5-yl)-N-(2-fluoroethyl)propanamide] was 100 to 1000 nM; that for `CC[C@@H]1CN(Cc2cc([C@H](CC(=O)NCC(=O)NC)c3ccc4c(nnn4CC)c3C)ccc2C)S(=O)(=O)c2cccnc2O1` [Example 39, (S)-3-(3-(((R)-4-Ethyl-1,1-dioxido-3,4-dihydro-2H-pyrido[2,3-b][1,4,5]oxathiazepin-2-yl)methyl)-4-methylphenyl)-3-(1-ethyl-4-methyl-1H-benzo[d][1,2,3]triazol-5-yl)-N-(2-(methylamino)-2-oxoethyl)propanamide] was 1000 to 10000 nM.
Consider `CCOCCNC(=O)C[C@@H](c1ccc(C)c(CN2C[C@@H](CC)Oc3ncccc3S2(=O)=O)c1)c1ccc2c(nnn2CC)c1C` [Example 40, (S)-N-(2-Ethoxyethyl)-3-(3-(((R)-4-ethyl-1,1-dioxido-3,4-dihydro-2H-pyrido[2,3-b][1,4,5]oxathiazepin-2-yl)methyl)-4-methylphenyl)-3-(1-ethyl-4-methyl-1H-benzo[d][1,2,3]triazol-5-yl)propanamide], for which the EC50 was in the range of 100 to 1000 nM.
